Experiments:
[1] = system: MIA PaCa-2 or SW1990 pancreatic cancer cells; experiment: Colony formation assay, SOS1 inhibitor combined with targeted agents; type: cell-based, human; conditions: 7 days of drug treatment, crystal violet absorbance at 590 nm; combined with one or more of the agents listed
Method: Compound 1, 2, 3, 3a, 3b, 4, 4a, 4b, 5, 6, 6a, 6b and 7 were tested for inhibition of colony formation potential in combination with one or more of the following agents in MIA PaCa-2 or SW1990 pancreatic cancer cells: • EGFR inhibitor: Afatinib, KRAS-G12C inhibitor: AMG 510, KRAS-G12C inhibitor: MRTX849, KRAS-G12D inhibitor: MRTX1133, ERK1/2 inhibitor: LY3214996 and BVD-523, BRAF inhibitor: Encorafenib, pan-RAF inhibitor: LXH254, PRMT5 inhibitor: compound 24 of WO 2019116302, Type I PRMT inhibitor: GSK3368715, PI3K inhibitor: BYL719, FGFR inhibitor: Nintedanib, CDK4/6 inhibitor: Abemaciclib, and other chemotherapeutic agent: Gemcitabine.
Colony formation assay: MIA PaCa-2 cells or SW1990 cells were seeded at 500 cells per well or 1500 cells/well, respectively in 48 well tissue culture plate and cells were allowed to settle overnight (16 to 20 h). On the following day, cells were treated with various concentrations of targeted agents to generate IC50 with or without increasing concentrations of SOS1 inhibitor (as depicted in the figures), and the assay plates were incubated under normal cell culture conditions. After 7 days of drug treatment, media was removed from each well and plates were washed with PBS. Cell colonies were stained with crystal violet solution for 2-5 min. Plate was then washed carefully under tap water and air dried. For quantitation, 200 μL destaining solution containing 10% Glacial acetic acid was added to each well and stained colonies were allowed to solubilize for 20-30 min on plate shaker. After solubilization, absorbance of the extracted stain was recorded in BioTek Synergy Neo U plate reader at 590 nm. Absorbance values were directly proportional to colony growth.

[2] = system: MIA PaCa-2 human pancreatic cancer xenograft; experiment: In vivo efficacy, Compound 1 or 4b combined with AMG 510, xenograft; set-up: species or system nude mice; conditions: single agent; for tumor growth inhibition: 30 mg/kg b.i.d.
[3] = system: MIA PaCa-2 human pancreatic cancer xenograft; experiment: In vivo efficacy, Compound 4b combined with Afatinib or Compound 24 of WO 2019116302, xenograft; set-up: species or system nude mice; conditions: single agent: Compound 4b 15 mg/kg b.i.d.; Afatinib 12.5 mg/kg q.d.; Compound 24 of WO 2019116302 1.0 mg/kg b.i.d.
[4] = system: MIA PaCa-2 human pancreatic cancer xenograft; experiment: In vivo efficacy, Compound 7 combined with AMG 510, xenograft; set-up: species or system nude mice; conditions: single agent
Excerpt: MIA PaCa-2 tumor fragments were implanted subcutaneously in the right flank region of nude mice. Tumor-bearing mice were randomized once the tumors reached an average volume of ˜155-164 mm^3 (tumor volume range 66-298 mm^3).

MIA PaCa-2 xenograft = experiment: In vivo efficacy, Compound 5 combined with Compound 24 of WO 2019116302, xenograft; set-up: species or system nude mice; conditions: single agent: Compound 5 50 mg/kg b.i.d.; Compound 24 of WO 2019116302 dose not given
Method: Compound 5 was tested in combination with Compound 24 of WO 2019116302 in vivo in MIA PaCa-2 xenograft model in nude mice.
20×10^6 MIA PaCa-2 cells were injected subcutaneously in the presence of PBS and Matrigel in 1:1 ratio in nude mice.

[5] = system: MIA PaCa-2 human pancreatic cancer xenograft; experiment: In vivo efficacy, Compound 7 combined with Afatinib, Compound 24 of WO 2019116302 or Ulixertinib, xenograft; set-up: species or system nude mice; conditions: single agent, Compound 7 15 mg/kg b.i.d.
[6] = system: MIA PaCa-2 human pancreatic cancer xenograft; experiment: In vivo efficacy, Compound 7 combined with LXH254, xenograft; set-up: species or system nude mice; conditions: single agent: Compound 7 5 mg/kg q.d.; LXH254 50 mg/kg b.i.d.

SMILES: COC1(C)C(=O)N(C)c2cc3c(N[C@H](C)c4cccc(C(F)(F)C(C)(C)O)c4F)nc(C)nc3cc21 (mixture of isomers) [Compound 4, (R&S)-4-(((R)-1-(3-(1,1-difluoro-2-hydroxy-2-methylpropyl)-2-fluorophenyl)ethyl)amino)-8-methoxy-2,6,8-trimethyl-6,8-dihydro-7H-pyrrolo[2,3-g]quinazolin-7-one]
- potentiation of activity of combination agents leading to inhibition of colony forming activity [1]: significant potentiation

SMILES: COC1(C)C(=O)N(C)c2cc3nc(C)nc(N[C@H](C)c4cccc(C(F)(F)C(C)(C)O)c4F)c3cc21 (mixture of isomers) [Compound 6, (R&S)-4-(((R)-1-(3-(1,1-difluoro-2-hydroxy-2-methylpropyl)-2-fluorophenyl)ethyl)amino)-6-methoxy-2,6,8-trimethyl-6,8-dihydro-7H-pyrrolo[3,2-g]quinazolin-7-one]
- potentiation of activity of combination agents leading to inhibition of colony forming activity [1]: significant potentiation

SMILES: CO[C@]1(C)C(=O)N(C)c2cc3nc(C)nc(N[C@H](C)c4cccc(C(F)(F)C(C)(C)O)c4F)c3cc21 (racemic) [Compound 6a, (S/R)-4-(((R)-1-(3-(1,1-difluoro-2-hydroxy-2-methylpropyl)-2-fluorophenyl)ethyl)amino)-6-methoxy-2,6,8-trimethyl-6,8-dihydro-7H-pyrrolo[3,2-g]quinazolin-7-one]
- potentiation of activity of combination agents leading to inhibition of colony forming activity [1]: significant potentiation

SMILES: Cc1nc(NC(C)c2cccc(C(F)(F)C(C)(C)O)c2)c2cc3c(cc2n1)C(C)(C)C(=O)N3C (single isomer, unassigned) [Compound 2, (R/S)-4-((1-(3-(1,1-difluoro-2-hydroxy-2-methylpropyl)phenyl)ethyl)amino)-2,6,8,8-tetramethyl-6,8-dihydro-7H-pyrrolo[2,3-g]quinazolin-7-one]
- potentiation of activity of combination agents leading to inhibition of colony forming activity [1]: significant potentiation

SMILES: Cc1nc(N[C@H](C)c2cccc(C(F)(F)C(C)(O)CO)c2F)c2cc3c(cc2n1)C(C)(C)C(=O)N3C (single isomer, unassigned) [Compound 3a]
- potentiation of activity of combination agents leading to inhibition of colony forming activity [1]: significant potentiation

SMILES: Cc1nc(N[C@H](C)c2cccc(C(F)(F)[C@@](C)(O)CO)c2F)c2cc3c(cc2n1)C(C)(C)C(=O)N3C (single isomer, unassigned) [Compound 3b]
- potentiation of activity of combination agents leading to inhibition of colony forming activity [1]: significant potentiation

SMILES: CO[C@]1(C)C(=O)N(C)c2cc3c(N[C@H](C)c4cccc(C(F)(F)C(C)(C)O)c4F)nc(C)nc3cc21 (single isomer, unassigned) [Compound 4a]
- potentiation of activity of combination agents leading to inhibition of colony forming activity [1]: significant potentiation

SMILES: COC1(C)C(=O)N(C)c2cc3c(N[C@H](C)c4cccc(C(F)(F)C(C)(C)O)c4F)nc(C)nc3cc21 (single isomer, unassigned) [Compound 4b]
- tumor growth inhibition [2]: 65.71±7.41%
- tumor growth inhibition [3]: 47%
- potentiation of activity of combination agents leading to inhibition of colony forming activity [1]: significant potentiation

SMILES: COC1(C)C(=O)N(C)c2cc3nc(C)nc(N[C@H](C)c4cccc(C(F)(F)C(C)(C)O)c4F)c3cc21 (single isomer, unassigned) [Compound 6b]
- potentiation of activity of combination agents leading to inhibition of colony forming activity [1]: significant potentiation

SMILES: C=CC(=O)N1CCN(c2nc(=O)n(-c3c(C)ccnc3C(C)C)c3nc(-c4c(O)cccc4F)c(F)cc23)[C@@H](C)C1 [AMG 510, 4-((S)-4-acryloyl-2-methylpiperazin-1-yl)-6-fluoro-7-(2-fluoro-6-hydroxyphenyl)-1-(2-isopropyl-4-methylpyridin-3-yl)pyrido[2,3-d]pyrimidin-2(1H)-one, reference compound]
- tumor regression ([2]; AMG 510 10 mg/kg q.d.): 39.43±15.22%
- inhibition in tumor growth ([4]; AMG 510 3 mg/kg q.d.): 77.69%

SMILES: CN(C)C/C=C/C(=O)Nc1cc2c(Nc3ccc(F)c(Cl)c3)ncnc2cc1O[C@H]1CCOC1 [Afatinib, (S,E)-N-(4-((3-chloro-4-fluorophenyl)amino)-7-((tetrahydrofuran-3-yl)oxy)quinazolin-6-yl)-4-(dimethylamino)but-2-enamide]
- tumor growth inhibition [3]: 38%

SMILES: Cc1nc(N[C@H](C)c2cccc(C(F)(F)C(C)(C)O)c2F)c2cc3c(cc2n1)C(C)(C)C(=O)N3C [Compound 1, (R)-4-((1-(3-(1,1-Difluoro-2-hydroxy-2-methylpropyl)-2-fluorophenyl)ethyl)amino)-2,6,8,8-tetramethyl-6,8-dihydro-7H-pyrrolo[2,3-g]quinazolin-7-one]
- tumor growth inhibition [2]: 63.82±8.32%
- potentiation of activity of combination agents leading to inhibition of colony forming activity [1]: significant potentiation

SMILES: Cc1nc(N[C@H](C)c2cccc(C(F)(F)C(C)(O)CO)c2F)c2cc3c(cc2n1)C(C)(C)C(=O)N3C (stereo partly drawn) [Compound 3, 4-(((R)-1-(3-((R&S)-1,1-Difluoro-2,3-dihydroxy-2-methylpropyl)-2-fluorophenyl)ethyl)amino)-2,6,8,8-tetramethyl-6,8-dihydro-7H-pyrrolo[2,3-g]quinazolin-7-one]
- potentiation of activity of combination agents leading to inhibition of colony forming activity [1]: significant potentiation

SMILES: Cc1nc(N[C@H](C)c2cc(N)cc(C(F)(F)F)c2)c2cc(-c3ccc(=O)n(C)c3)c3c(c2n1)CCC3 [Compound 5, (R)-5-(4-((1-(3-amino-5-(trifluoromethyl)phenyl)ethyl)amino)-2-methyl-8,9-dihydro-7H-cyclopenta[h]quinazolin-6-yl)-1-methylpyridin-2(1H)-one]
- potentiation of activity of combination agents leading to inhibition of colony forming activity [1]: significant potentiation
- tumor growth inhibition (MIA PaCa-2 xenograft): 59%

SMILES: CO[C@]1(C)C(=O)N(C)c2cc3c(N[C@H](C)c4cc(N)cc(C(F)(F)F)c4)nc(C)nc3cc21 [Compound 7, (S)-4-(((R)-1-(3-amino-5-(trifluoromethyl)phenyl)ethyl)amino)-8-methoxy-2,6,8-trimethyl-6,8-dihydro-7H-pyrrolo[2,3-g]quinazolin-7-one]
- inhibition in tumor growth [5]: 32.86%
- inhibition in tumor growth ([4]; Compound 7 5 mg/kg q.d.): 30.40%
- inhibition in tumor growth ([4]; Compound 7 10 mg/kg q.d.): 43.42%
- inhibition in tumor growth ([4]; Compound 7 20 mg/kg q.d.): 52.71%
- potentiation of activity of combination agents leading to inhibition of colony forming activity [1]: significant potentiation
- inhibition in tumor growth [6]: 39.82%

SMILES: Nc1nc2cc(CCC3=C[C@@H](n4ccc5c(N)ncnc54)[C@H](O)[C@@H]3O)cc(F)c2cc1Cl [Compound 24 of WO 2019116302, (1S,2R,5R)-3-(2-(2-amino-3-chloro-5-fluoroquinolin-7-yl)ethyl)-5-(4-amino-7H-pyrrolo[2,3-d]pyrimidin-7-yl)cyclopent-3-ene-1,2-diol, reference compound]
- tumor growth inhibition [3]: 52%
- tumor growth inhibition (MIA PaCa-2 xenograft): 73%

SMILES: Cc1ccc(NC(=O)c2ccnc(C(F)(F)F)c2)cc1-c1cc(OCCO)nc(N2CCOCC2)c1 [LXH254, N-(3-(2-(2-hydroxyethoxy)-6-morpholinopyridin-4-yl)-4-methylphenyl)-2-(trifluoromethyl)isonicotinamide, reference compound]
- inhibition in tumor growth [6]: 34.96%

— patent publication US20240366608A1, “PHARMACEUTICAL COMBINATIONS OF SOS1 INHIBITORS FOR TREATING AND/OR PREVENTING CANCER” (Lupin Limited, priority 2021, published 2024)
